# Laboratory results: the supplement of paper PMC10307832
# Legend:
# Experiment in all cases: relative viability (nuclei count vs DMSO), 5 days (fraction); higher = more cells survive
# [1] = compound: Cn1cc(-c2cnn3c(N)c(Br)c([C@@H]4CCCNC4)nc23)cn1
# Procedure, shortened: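 Nuclei counted with MetaXpress define viability as the ratio of treated to vehicle wells, given as a median across plates. The lung cancer cell lines were in 1536-well plates, pinned with five √10-spaced library-drug doses and imaged at 4× after 5 days and Hoechst staining. Plates passed with control CV below 25% and at least one doubling.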
# [2] = compound: Cn1cc(-c2cnn3c(N)c(Br)c([C@@H]4CCCNC4)nc23)cn1 + Cc1cc(Nc2cc(N3CCN(C)CC3)nc(Sc3ccc(NC(=O)C4CC4)cc3)n2)n[nH]1 [Tozasertib] (partner 0.1 µM)
# Procedure, shortened: (§1)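 Relative viability is defined as nuclei in treated wells over nuclei in vehicle wells. Duplicate plates were run and medians reported. Lung cancer cell lines in 1536-well plates were dosed by pin tool one day after seeding, with one drug or with a fixed anchor-drug dose plus five library-drug doses (not always all listed) in √10 steps, and nuclei were counted after 5 days.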
# [3] = compound: Cn1cc(-c2cnn3c(N)c(Br)c([C@@H]4CCCNC4)nc23)cn1 + COc1cc2c(Oc3ccc(NC(=O)C4(C(=O)Nc5ccc(F)cc5)CC4)cc3F)ccnc2cc1OCCCN1CCOCC1 [Foretinib] (partner 0.25 µM)
# Procedure, shortened: as §1
# [4] = compound: Cn1cc(-c2cnn3c(N)c(Br)c([C@@H]4CCCNC4)nc23)cn1 + Nc1nc2[nH]cc(CCc3ccc(C(=O)N[C@@H](CCC(=O)O)C(=O)O)cc3)c2c(=O)[nH]1 [Pemetrexed] (partner 0.2 µM)
# Procedure, shortened: as §1
# [5] = compound: Cn1cc(-c2cnn3c(N)c(Br)c([C@@H]4CCCNC4)nc23)cn1 + CC(=O)c1c(C)c2cnc(Nc3ccc(N4CCNCC4)cn3)nc2n(C2CCCC2)c1=O [Palbociclib] (partner 0.5 µM)
# Procedure, shortened: as §1
# [6] = compound: Cn1cc(-c2cnn3c(N)c(Br)c([C@@H]4CCCNC4)nc23)cn1 + Cc1nc(Nc2ncc(C(=O)Nc3c(C)cccc3Cl)s2)cc(N2CCN(CCO)CC2)n1 [Dasatinib] (partner 0.075 µM)
# Procedure, shortened: as §1
# [7] = compound: Cn1cc(-c2cnn3c(N)c(Br)c([C@@H]4CCCNC4)nc23)cn1 + O=C(c1cc(Cc2n[nH]c(=O)c3ccccc23)ccc1F)N1CCN(C(=O)C2CC2)CC1 [Olaparib] (partner 8 µM)
# Procedure, shortened: as §1
# [8] = compound: Cn1cc(-c2cnn3c(N)c(Br)c([C@@H]4CCCNC4)nc23)cn1 + CCNC(=O)c1noc(-c2cc(C(C)C)c(O)cc2O)c1-c1ccc(CN2CCOCC2)cc1 [Luminespib] (partner 0.01 µM)
# Procedure, shortened: as §1
# [9] = compound: Cn1cc(-c2cnn3c(N)c(Br)c([C@@H]4CCCNC4)nc23)cn1 + Nc1ncn([C@H]2C[C@H](O)[C@@H](CO)O2)c(=O)n1 [Decitabine] (partner 2 µM)
# Procedure, shortened: as §1
# [10] = compound: Cn1cc(-c2cnn3c(N)c(Br)c([C@@H]4CCCNC4)nc23)cn1 + COc1cccc2cc(-c3nc([C@H]4CC[C@H](C(=O)O)CC4)n4ncnc(N)c34)[nH]c12 [OSI-027] (partner 0.5 µM)
# Procedure, shortened: as §1
# [11] = compound: Cn1cc(-c2cnn3c(N)c(Br)c([C@@H]4CCCNC4)nc23)cn1 + N=C(N)NC(=N)NCCc1ccccc1 [Phenformin] (partner 250 µM)
# Procedure, shortened: as §1
# [12] = compound: Cn1cc(-c2cnn3c(N)c(Br)c([C@@H]4CCCNC4)nc23)cn1 + NC(=O)Nc1cc(-c2cccc(F)c2)sc1C(=O)N[C@H]1CCCNC1 [AZD7762] (partner 0.2 µM)
# Procedure, shortened: as §1
# [13] = compound: Cn1cc(-c2cnn3c(N)c(Br)c([C@@H]4CCCNC4)nc23)cn1 + O=C(CCCCCCC(=O)Nc1ccccc1)NO [Vorinostat] (partner 1 µM)
# Procedure, shortened: as §1
# [14] = compound: Cn1cc(-c2cnn3c(N)c(Br)c([C@@H]4CCCNC4)nc23)cn1 + CC(=O)Nc1cccc(-n2c(=O)n(C3CC3)c(=O)c3c(Nc4ccc(I)cc4F)n(C)c(=O)c(C)c32)c1 [Trametinib] (partner 0.02 µM)
# Procedure, shortened: as §1
# [15] = compound: Cn1cc(-c2cnn3c(N)c(Br)c([C@@H]4CCCNC4)nc23)cn1 + CS(=O)(=O)N1CCN(Cc2cc3nc(-c4cccc5[nH]ncc45)nc(N4CCOCC4)c3s2)CC1 [Pictilisib] (partner 1 µM)
# Procedure, shortened: as §1
# [16] = compound: Cn1cc(-c2cnn3c(N)c(Br)c([C@@H]4CCCNC4)nc23)cn1 + CS(=O)(=O)CCNCc1ccc(-c2ccc3ncnc(Nc4ccc(OCc5cccc(F)c5)c(Cl)c4)c3c2)o1 [Lapatinib] (partner 2 µM)
# Procedure, shortened: as §1
# [17] = compound: Cn1cc(-c2cnn3c(N)c(Br)c([C@@H]4CCCNC4)nc23)cn1 + C[C@]1(O)C[C@@H](c2nc(-c3ccc4ccc(-c5ccccc5)nc4c3)c3c(N)nccn32)C1 [Linsitinib] (partner 1 µM)
# Procedure, shortened: as §1
# [18] = compound: Cn1cc(-c2cnn3c(N)c(Br)c([C@@H]4CCCNC4)nc23)cn1 + C[C@@H](Oc1cc(-c2cnn(C3CCNCC3)c2)cnc1N)c1c(Cl)ccc(F)c1Cl [Crizotinib] (partner 1 µM)
# Procedure, shortened: as §1
# [19] = compound: Cn1cc(-c2cnn3c(N)c(Br)c([C@@H]4CCCNC4)nc23)cn1 + CC(C)C[C@H](NC(=O)[C@H](Cc1ccccc1)NC(=O)c1cnccn1)B(O)O [Bortezomib] (partner 0.002 µM)
# Procedure, shortened: as §1
# [20] = compound: Cn1cc(-c2cnn3c(N)c(Br)c([C@@H]4CCCNC4)nc23)cn1 + Cc1nc(NC(=O)N2CCC[C@H]2C(N)=O)sc1-c1ccnc(C(C)(C)C(F)(F)F)c1 [Alpelisib] (partner 2 µM)
# Procedure, shortened: as §1
# [21] = compound: Cn1cc(-c2cnn3c(N)c(Br)c([C@@H]4CCCNC4)nc23)cn1 + CC1(C)CCC(c2ccc(Cl)cc2)=C(CN2CCN(c3ccc(C(=O)NS(=O)(=O)c4ccc(N[C@H](CCN5CCOCC5)CSc5ccccc5)c(S(=O)(=O)C(F)(F)F)c4)cc3)CC2)C1 [Navitoclax] (partner 0.5 µM)
# Procedure, shortened: as §1
cell line,measurement,setting,value
SW 900,relative viability,[1]; 0.05 µM,0.87
same,relative viability,[1]; 0.1581 µM,0.881
same,relative viability,[1]; 0.5 µM,1
same,relative viability,[1]; 1.581 µM,0.669
same,relative viability,[1]; 5 µM,0.309
same,relative viability,[2]; first compound 0.05 µM,0.59
same,relative viability,[2]; first compound 0.1581 µM,0.66
same,relative viability,[2]; first compound 0.5 µM,0.421
same,relative viability,[2]; first compound 1.581 µM,0.458
same,relative viability,[2]; first compound 5 µM,0.351
same,relative viability,[3]; first compound 0.05 µM,0.828
same,relative viability,[3]; first compound 0.1581 µM,0.817
same,relative viability,[3]; first compound 0.5 µM,0.78
same,relative viability,[3]; first compound 1.581 µM,0.768
same,relative viability,[3]; first compound 5 µM,0.39
same,relative viability,[4]; first compound 0.05 µM,0.449
same,relative viability,[4]; first compound 0.1581 µM,0.468
same,relative viability,[4]; first compound 0.5 µM,0.493
same,relative viability,[4]; first compound 1.581 µM,0.295
same,relative viability,[4]; first compound 5 µM,0.305
same,relative viability,[5]; first compound 0.05 µM,0.53
same,relative viability,[5]; first compound 0.1581 µM,0.527
same,relative viability,[5]; first compound 0.5 µM,0.535
same,relative viability,[5]; first compound 1.581 µM,0.444
same,relative viability,[5]; first compound 5 µM,0.529
same,relative viability,[6]; first compound 0.05 µM,0.496
same,relative viability,[6]; first compound 0.1581 µM,0.585
same,relative viability,[6]; first compound 0.5 µM,0.671
same,relative viability,[6]; first compound 1.581 µM,0.448
same,relative viability,[6]; first compound 5 µM,0.197
same,relative viability,[7]; first compound 0.05 µM,0.897
same,relative viability,[7]; first compound 0.1581 µM,0.97
same,relative viability,[7]; first compound 0.5 µM,0.758
same,relative viability,[7]; first compound 1.581 µM,0.8
same,relative viability,[7]; first compound 5 µM,0.616
same,relative viability,[8]; first compound 0.05 µM,0.184
same,relative viability,[8]; first compound 0.1581 µM,0.176
same,relative viability,[8]; first compound 0.5 µM,0.188
same,relative viability,[8]; first compound 1.581 µM,0.189
same,relative viability,[8]; first compound 5 µM,0.165
same,relative viability,[9]; first compound 0.05 µM,0.383
same,relative viability,[9]; first compound 0.1581 µM,0.409
same,relative viability,[9]; first compound 0.5 µM,0.418
same,relative viability,[9]; first compound 1.581 µM,0.42
same,relative viability,[9]; first compound 5 µM,0.595
same,relative viability,[10]; first compound 0.05 µM,0.597
same,relative viability,[10]; first compound 0.1581 µM,0.612
same,relative viability,[10]; first compound 0.5 µM,0.541
same,relative viability,[10]; first compound 1.581 µM,0.453
same,relative viability,[10]; first compound 5 µM,0.26
same,relative viability,[11]; first compound 0.05 µM,0.656
same,relative viability,[11]; first compound 0.1581 µM,0.776
same,relative viability,[11]; first compound 0.5 µM,0.726
same,relative viability,[11]; first compound 1.581 µM,0.428
same,relative viability,[11]; first compound 5 µM,0.228
same,relative viability,[12]; first compound 0.05 µM,0.607
same,relative viability,[12]; first compound 0.1581 µM,0.618
same,relative viability,[12]; first compound 0.5 µM,0.572
same,relative viability,[12]; first compound 1.581 µM,0.547
same,relative viability,[12]; first compound 5 µM,0.465
same,relative viability,[13]; first compound 0.05 µM,0.47
same,relative viability,[13]; first compound 0.1581 µM,0.362
same,relative viability,[13]; first compound 0.5 µM,0.648
same,relative viability,[13]; first compound 1.581 µM,0.369
same,relative viability,[13]; first compound 5 µM,0.181
same,relative viability,[14]; first compound 0.05 µM,0.772
same,relative viability,[14]; first compound 0.1581 µM,0.746
same,relative viability,[14]; first compound 0.5 µM,0.946
same,relative viability,[14]; first compound 1.581 µM,0.753
same,relative viability,[14]; first compound 5 µM,0.816
NCI-H1299,relative viability,[1]; 0.05 µM,1.03
same,relative viability,[1]; 0.1581 µM,1.07
same,relative viability,[1]; 0.5 µM,1.01
same,relative viability,[1]; 1.581 µM,0.926
same,relative viability,[1]; 5 µM,0.795
same,relative viability,[3]; first compound 0.05 µM,1.08
same,relative viability,[3]; first compound 0.1581 µM,1.14
same,relative viability,[3]; first compound 0.5 µM,1.12
same,relative viability,[3]; first compound 1.581 µM,0.988
same,relative viability,[3]; first compound 5 µM,0.833
same,relative viability,[15]; first compound 0.05 µM,0.876
same,relative viability,[15]; first compound 0.1581 µM,0.562
same,relative viability,[15]; first compound 0.5 µM,0.462
same,relative viability,[15]; first compound 1.581 µM,0.175
same,relative viability,[15]; first compound 5 µM,0.223
same,relative viability,[7]; first compound 0.05 µM,0.981
same,relative viability,[7]; first compound 0.1581 µM,0.968
same,relative viability,[7]; first compound 0.5 µM,1
same,relative viability,[7]; first compound 1.581 µM,0.738
same,relative viability,[7]; first compound 5 µM,0.472
same,relative viability,[16]; first compound 0.05 µM,0.982
same,relative viability,[16]; first compound 0.1581 µM,0.976
same,relative viability,[16]; first compound 0.5 µM,0.923
same,relative viability,[16]; first compound 1.581 µM,0.767
same,relative viability,[16]; first compound 5 µM,0.757
same,relative viability,[17]; first compound 0.05 µM,1.02
same,relative viability,[17]; first compound 0.1581 µM,1.04
same,relative viability,[17]; first compound 0.5 µM,0.959
same,relative viability,[17]; first compound 1.581 µM,0.833
same,relative viability,[17]; first compound 5 µM,0.626
same,relative viability,[18]; first compound 0.05 µM,0.992
same,relative viability,[18]; first compound 0.1581 µM,0.931
same,relative viability,[18]; first compound 0.5 µM,0.965
same,relative viability,[18]; first compound 1.581 µM,0.676
same,relative viability,[18]; first compound 5 µM,0.707
same,relative viability,[19]; first compound 0.05 µM,0.942
same,relative viability,[19]; first compound 0.1581 µM,1.04
same,relative viability,[19]; first compound 0.5 µM,0.994
same,relative viability,[19]; first compound 1.581 µM,1.03
same,relative viability,[19]; first compound 5 µM,0.985
same,relative viability,[20]; first compound 0.05 µM,1.03
same,relative viability,[20]; first compound 0.1581 µM,1.13
same,relative viability,[20]; first compound 0.5 µM,1.09
same,relative viability,[20]; first compound 1.581 µM,1.05
same,relative viability,[20]; first compound 5 µM,0.954
same,relative viability,[21]; first compound 0.05 µM,1.03
same,relative viability,[21]; first compound 0.1581 µM,1.06
same,relative viability,[21]; first compound 0.5 µM,1.08
same,relative viability,[21]; first compound 1.581 µM,1.02
same,relative viability,[21]; first compound 5 µM,0.936
